Assay results from PMC10443802, “Targeting a xenobiotic transporter to ameliorate vincristine-induced sensory neuropathy” (JCI Insight, 2023).
Several values for one entry are separate records, joined by “and”; a condition that tells them apart may be missing. Equal values may be shown once.

What was measured:
hOATP1B1 = target: T1, hOATP1B1 (Homo sapiens, UniProt Q9Y6L6); assay: Inhibition of vincristine uptake in HEK293 cells overexpressing hOATP1B1; conditions: inhibitor 15 min pre-treatment
T1 sequence (Q9Y6L6 1-691): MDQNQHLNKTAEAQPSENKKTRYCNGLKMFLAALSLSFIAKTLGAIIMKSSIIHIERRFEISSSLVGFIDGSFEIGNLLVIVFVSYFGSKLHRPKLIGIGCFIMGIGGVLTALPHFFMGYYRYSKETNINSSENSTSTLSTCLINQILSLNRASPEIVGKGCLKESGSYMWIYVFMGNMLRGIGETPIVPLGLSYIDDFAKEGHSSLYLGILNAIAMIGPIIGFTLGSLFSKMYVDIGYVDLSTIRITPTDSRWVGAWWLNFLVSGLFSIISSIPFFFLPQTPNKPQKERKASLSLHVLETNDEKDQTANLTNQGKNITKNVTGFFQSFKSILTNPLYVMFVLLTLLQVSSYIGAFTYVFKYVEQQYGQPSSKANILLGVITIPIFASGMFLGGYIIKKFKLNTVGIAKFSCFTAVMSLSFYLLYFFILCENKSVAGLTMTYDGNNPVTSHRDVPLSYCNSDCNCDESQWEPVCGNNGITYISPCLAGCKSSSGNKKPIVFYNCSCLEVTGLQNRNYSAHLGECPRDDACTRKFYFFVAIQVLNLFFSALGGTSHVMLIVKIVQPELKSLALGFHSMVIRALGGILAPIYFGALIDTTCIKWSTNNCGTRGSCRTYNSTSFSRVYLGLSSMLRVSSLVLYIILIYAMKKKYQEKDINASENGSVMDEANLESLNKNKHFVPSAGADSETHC

hOATP1B3 = target: T2, hOATP1B3 (Homo sapiens, UniProt Q9NPD5); assay: Inhibition of EβG uptake in HEK293 cells overexpressing hOATP1B3; conditions: HEK293 hOATP1B3; inhibitor 10 μM, 15-min pre-incubation
T2 sequence (Q9NPD5 1-702): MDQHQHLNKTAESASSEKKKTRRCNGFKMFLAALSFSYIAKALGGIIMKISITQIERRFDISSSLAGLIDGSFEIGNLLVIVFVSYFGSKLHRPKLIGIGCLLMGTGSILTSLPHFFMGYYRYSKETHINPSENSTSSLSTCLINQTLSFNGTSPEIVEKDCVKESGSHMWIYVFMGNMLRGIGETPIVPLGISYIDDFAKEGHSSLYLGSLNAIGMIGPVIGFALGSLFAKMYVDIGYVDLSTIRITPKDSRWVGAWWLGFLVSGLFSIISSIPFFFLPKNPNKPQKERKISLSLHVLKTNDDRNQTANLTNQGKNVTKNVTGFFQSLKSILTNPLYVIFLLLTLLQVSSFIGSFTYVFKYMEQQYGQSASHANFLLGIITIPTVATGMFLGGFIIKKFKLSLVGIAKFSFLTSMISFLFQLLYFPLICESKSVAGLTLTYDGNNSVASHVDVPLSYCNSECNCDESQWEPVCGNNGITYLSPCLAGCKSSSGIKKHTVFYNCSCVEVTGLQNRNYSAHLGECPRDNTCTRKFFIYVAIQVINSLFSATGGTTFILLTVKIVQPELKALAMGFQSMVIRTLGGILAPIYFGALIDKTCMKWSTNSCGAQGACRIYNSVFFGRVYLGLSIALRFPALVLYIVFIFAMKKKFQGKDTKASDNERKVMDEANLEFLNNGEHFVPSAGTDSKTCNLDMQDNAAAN

CCRF = assay: Cytotoxicity of vincristine with or without nilotinib, MTT assay, CCRF; assay type: cell-based, human; conditions: CCRF cells, vincristine alone, individual replicates
hOCTN1 = hOCTN1 (Homo sapiens, UniProt Q9H015); assay: Vincristine uptake screen, HeLa cells overexpressing hOCTN1; assay type: in vitro ADME
Description: Relative uptake is expressed as percentage change compared with empty vector controls (n = 4–14 per group). […] Human OATP1B1 and OATP1B3 transporter–overexpressed cells were used as positive controls; empty vector controls were used as the negative control. […] Mechanical allodynia (C), thermal hyperalgesia (D), and sciatic nerve maximal action potential amplitudes (E) are expressed as percentage change relative to baseline values (n = 6–8 per group). Statistical analysis was performed using a 2-way ANOVA with Bonferroni’s post hoc test. **P < 0.01, ***P < 0.001, ****P < 0.0001, compared with baseline values. […] Data are shown as mean ± SEM. […]
transfected with transporters of interest, including hOAT1, hOAT3, hOAT4, hOATP1A2, hOATP3A1, hOATP4A1, hOATP5A1, hOATP1C1, hOATP1B1, hOATP1B3, hOATP2B1, hOCT1, hOCT2, hOCTN1, hOCTN2, hASBT, hNTCP, hNPT1, hMATE1, hOSTα/β, hPEPT1, hPEPT2, rOatp1a1, rOatp1a4, rOatp1a5, rOatp1b2, rNtcp, rAsbt, rOat1, and rOct1. Cells were transfected with expression plasmid or vector control lacking any insert using Lipofectin reagent (Invitrogen). Sixteen hours thereafter, cells were washed with transport media (OPTIMEM, Invitrogen) and treated with radiolabeled drug. […] The cellular radioactivity was quantified by liquid scintillation counting as described above. […]

hOCTN1, sequence (Q9H015 whole entry): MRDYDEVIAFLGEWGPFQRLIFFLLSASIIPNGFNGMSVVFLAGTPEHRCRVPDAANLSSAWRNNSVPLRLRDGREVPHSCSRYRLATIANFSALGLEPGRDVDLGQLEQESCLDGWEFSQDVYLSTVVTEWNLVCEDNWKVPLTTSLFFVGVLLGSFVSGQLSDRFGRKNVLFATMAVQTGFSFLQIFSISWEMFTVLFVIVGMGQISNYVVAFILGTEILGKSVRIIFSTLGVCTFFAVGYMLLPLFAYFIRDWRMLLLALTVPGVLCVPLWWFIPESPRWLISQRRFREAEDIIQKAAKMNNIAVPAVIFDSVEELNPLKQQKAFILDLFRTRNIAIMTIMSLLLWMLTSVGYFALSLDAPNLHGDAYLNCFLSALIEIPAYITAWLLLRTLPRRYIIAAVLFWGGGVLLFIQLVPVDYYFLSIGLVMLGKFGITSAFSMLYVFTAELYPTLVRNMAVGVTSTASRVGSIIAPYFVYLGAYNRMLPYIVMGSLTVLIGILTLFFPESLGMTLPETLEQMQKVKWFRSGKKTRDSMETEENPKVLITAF

Cc1cn(-c2cc(NC(=O)c3ccc(C)c(Nc4nccc(-c5cccnc5)n4)c3)cc(C(F)(F)F)c2)cn1 [Nilotinib, nilotinib]
Vincristine uptake (% of vehicle) (hOATP1B1): 101.303 % of vehicle and 90.7094 % of vehicle and 62.8074 % of vehicle and 106.906 % of vehicle and 107.581 % of vehicle and 108.402 % of vehicle | EβG uptake (% of vehicle) (hOATP1B3): 3.038 % of vehicle and 2.924 % of vehicle and 2.718 % of vehicle

CC[C@]1(O)C[C@H]2CN(CCc3c([nH]c4ccccc34)[C@@](C(=O)OC)(c3cc4c(cc3OC)N(C=O)[C@H]3[C@@](O)(C(=O)OC)[C@H](OC(C)=O)[C@]5(CC)C=CCN6CC[C@]43[C@@H]65)C2)C1 [Vincristine, vincristine]
IC50 (CCRF): 4.56 nM and 4.49 nM and 1.65 nM and 7.48 nM and 6.4 nM and 5.53 nM and 3.87 nM and 3.24 nM and 7.33 nM | Vincristine uptake (% of vector control) (hOCTN1): 169.00 % of vector control and 132.00 % of vector control and 109.00 % of vector control and 131.00 % of vector control and 135.00 % of vector control and 167.00 % of vector control and 158.00 % of vector control
